Results on three compounds are retold here after publication PMC9585589 (ACS Chemical Neuroscience, 2022).

Usually Solubility stands for the dissolved amount per volume that the medium holds.

Values joined by “and” are separate entries in the source; they are usually repeats but may differ in a detail not shown here. Identical values can stand only once. Like-named read-outs stand apart in the source and are kept apart here.

Series [1] concerns the target T1, human CB1 receptor (Homo sapiens, UniProt P21554). As to the kind of experiment: biochemical. How it is done: Ten compound concentrations equally spaced on a log scale (10^–3 to 10^–9 M) were incubated in triplicate with membrane preparations from CHO-K1 cells expressing the human CB1 receptor (5 μg per well) (Perkin Elmer, cat. no. ES-110-M400UA) in an assay buffer containing 50 mM Tris-HCl, pH = 7.4, 1 mM EGTA, 3 mM MgCl2, 100 mM NaCl and 30 μM GDP) in the presence of 0.08 nM [^35S]GTPγS (specific activity: 1250 Ci/mmole, Perkin Elmer). Non-specific binding was determined with 100 μM of unlabeled GTPγS. […] The final DMSO concentration in the assay was 5%. The reaction mixture was incubated for 90 min. at 30°C . Next, the samples were deposited under vacuum with the FilterMate Harvester® (Perkin Elmer, USA) onto Unifilter® GF/B Plates (Perkin Elmer, USA) presoaked with wash buffer (50 mM Tris-HCl, pH = 7.4). The samples were then rapidly washed with 2 ml of wash buffer. Filter plates were dried for 30 min. at 50 °C and 40 μL of MicroScint PS (Perkin Elmer, USA) scintillation fluid was added to each well. Radioactivity was counted in a Trilux MicroBeta^2 counter (Perkin Elmer, USA). Data were analyzed with GraphPad Prism 5.0 software. Curves were fitted with three-parameter non-linear regression model.

Series [2] addresses T1, human CB1 receptor. Format: biochemical. The settings on record: in words.
Details of series [3]: method as in MedChemExpress product data sheet. The settings on record: ref MedChemExpress product data sheet, cited from earlier work.
In series [4] the target is T1, human CB1 receptor. As to the kind of experiment: biochemical. Format: binding. Also on record: purchased Merck HTS019M; host or cells: Chem-1 cells. An excerpt:
Compounds selected for the in vitro binding assay from the first iteration of VS were purchased via MolPort, SIA, Riga, Latvia and Biopurify Phytochemicals Ltd., Chengdu, China. Compounds from the second iteration were purchased from MolPort, SIA, Riga, Latvia and Chemspace, SIA, Riga, Latvia (Supporting Information S3). […] Membranes from cells overexpressing the human CB1 receptor (ChemiScreen CB1 Cannabinoid Receptor Membrane Preparation, cat. no. HTS019M) as well as MgCl2, CaCl2, Trizma Base, NaCl, polyethylenimine (PEI) and dimethyl sulfoxide (DMSO) were purchased from Merck (USA). Bovine serum albumin (BSA) was obtained from Pol-Aura (Poland).
Compounds were dissolved in 50% DMSO and added to the reaction mixture at 10 concentrations equally spaced on a log scale (10^–10 to 10^–4.5 M). The final DMSO concentration was 5%. […] The reaction mixture (500 μL) was incubated for 1.5 h at 30°C . Before harvesting, Whatman GF/B Filter Paper (Brandel, USA) was presoaked with 0.33% PEI buffer for 30 min. and then washed with 2 ml of 50 mM Tris-HCl buffer (pH = 7.4) and 0.5% BSA to minimize non-specific binding. The reaction was terminated by depositing the samples onto GF/B filter paper with the Brandel M-24 Cell Harvester (Brandel, USA). Samples were then rapidly washed 3 times with 2 ml of ice-cold wash buffer (50 mM Tris-HCl pH 7.4, 500 mM NaCl) to separate the bound radioligand from free. Filters were then air-dried for 1 h at 60°C . After drying, filter discs were placed on a flexible 24-well plate and 500 μL of EcoScint-20 scintillant was added to each well. Plates were counted (2 min. per well) in a Trilux MicroBeta^2 2450 scintillation counter (Perkin Elmer, USA). Data were analyzed with GraphPad Prism 5.0 software.[89]

In a further series the target is CB1. The settings on record: known CB1 ligands; ref 55 (rimonabant), 56 (nabilone), 17 (bazedoxifene); cited from earlier work.

T1 sequence (P21554 whole entry): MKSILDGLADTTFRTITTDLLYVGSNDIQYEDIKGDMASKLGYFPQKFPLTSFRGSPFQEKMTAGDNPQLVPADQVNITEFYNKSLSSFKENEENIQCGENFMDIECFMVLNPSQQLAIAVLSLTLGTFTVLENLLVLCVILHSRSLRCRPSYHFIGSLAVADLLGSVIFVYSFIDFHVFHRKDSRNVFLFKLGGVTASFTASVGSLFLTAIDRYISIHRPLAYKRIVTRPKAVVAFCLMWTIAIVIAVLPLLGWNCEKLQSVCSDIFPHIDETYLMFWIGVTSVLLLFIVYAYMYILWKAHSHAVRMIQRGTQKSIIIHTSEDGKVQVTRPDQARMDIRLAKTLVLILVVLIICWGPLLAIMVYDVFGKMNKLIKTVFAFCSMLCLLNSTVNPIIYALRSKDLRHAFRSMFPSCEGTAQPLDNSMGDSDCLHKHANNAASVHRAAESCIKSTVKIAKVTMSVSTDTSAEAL

For `CC(C)OC(=O)CCC/C=C\C[C@@H]1[C@@H](/C=C/[C@@H](O)COc2cccc(C(F)(F)F)c2)[C@H](O)C[C@@H]1O` [Compound 9, travoprost], the IC50 against human CB1 receptor [1] (CB1 inhibition IC50 (μM, 95% CI)) was 232 µM; on human CB1 receptor [1] (CHO-K1 membranes, WIN 55,212-2 (3 μM) as stimulating ligand, read-out: CB1 inhibition pIC50 (converted)), 229 µM. At human CB1 receptor [2], the intrinsic activity entry is reported as “antagonists”. The Solubility in series [3] (10% DMSO >> 40% PEG300 >> 5% Tween-80 >> 45% saline) is ≥ 2.08 mg/mL and ≥ 4.16 mM; in series [3] (10% DMSO >> 90% (20% SBE-β-CD in saline)) it was ≥ 2.08 mg/mL and ≥ 4.16 mM; in series [3] (10% DMSO >> 90% corn oil), ≥ 2.08 mg/mL and ≥ 4.16 mM. Also, in series [3] (in vitro), the “Solubility in DMSO” value was ≥ 41.67 mg/mL and ≥ 83.25 mM. Further, the Ki was 3.6 µM at human CB1 receptor [4] (Ki (μM, 95% CI)) and 3.98 µM on human CB1 receptor [4] ([3H]CP-55,940 displacement, membranes of Chem-1 cells expressing human CB1, read-out: pKi ± SEM (converted)).

Consider `Cc1c(-c2ccc(O)cc2)n(Cc2ccc(OCCN3CCCCCC3)cc2)c2ccc(O)cc12` [bazedoxifene], for which the pKi at CB1 is 6.1[17].

Turning to `CCCCCCC(C)(C)c1cc(O)c2c(c1)OC(C)(C)C1CCC(=O)CC21` (centres unmarked) [nabilone], the pKi on CB1 is 8.7[56].
